For data set [1] the following is noted: rats; cited from earlier work.
Another data set can be described thus: Rat IV PK. It counts as in vivo. Particulars: male, Sprague-Dawley, plasma, 1 mg/kg.
A further data set is described as follows: Stability in rat plasma. The format is in vitro ADME.
Data set [2] can be described thus: Cynomolgus monkey oral PK. It counts as in vivo. Conditions: male, plasma, 5 mg/kg.
The subject of another data set is TA1537. In words: Bacterial reverse mutation assay. The format is cell-based, Salmonella typhimurium. Conditions: with and without S9 metabolic activation; 0.05 to 5.0 mg/plate.
For a further data set, the system named is aldehyde oxidase (AO). The experiment in a line: Metabolism in hepatic S9 fractions. It counts as in vitro ADME. Conditions: rat, cynomolgus monkey and human hepatic S9 fractions.
The test system of another data set is TA135. The experiment in a line: Bacterial reverse mutation assay. The format is cell-based, Salmonella typhimurium. Conditions: with and without S9 metabolic activation; 0.05 to 5.0 mg/plate.
The next data set has as its system WP2 uvrA. In words: Bacterial reverse mutation assay. The format is cell-based, Escherichia coli. Conditions: with and without S9 metabolic activation; 0.05 to 5.0 mg/plate.
The next data set deals with TA98. The experiment in a line: Bacterial reverse mutation assay. Particulars: with and without S9 metabolic activation; 0.05 to 5.0 mg/plate. It counts as cell-based, Salmonella typhimurium.
A short description of data set [3]: Stability in human cryopreserved hepatocytes.
The next data set deals with TA100. In words: Bacterial reverse mutation assay. The format is cell-based, Salmonella typhimurium. Particulars: with and without S9 metabolic activation; 0.05 to 5.0 mg/plate.

The clearance is the rate of elimination divided by the concentration. In general, Tmax refers to the time at which the peak concentration occurs. Broadly, the half-life is how long it takes for the measured level to halve.

Some results are limits rather than exact numbers.

In the case of `Cc1csc(NC(=O)c2cc(F)cc(Oc3cncnc3)c2)n1` [compound 9], the Clp in [1] is given as 43 mL/min/kg.
For the compound `Cc1cccc(NC(=O)c2cc(Oc3cncnc3)cc(C)n2)n1` [compound 21, 6-Methyl-N-(6-methylpyridin-2-yl)-4-(pyrimidin-5-yloxy)picolinamide], in the data set “Rat IV PK”, the clearance at 24 h worked out at 34.2 mL/min/kg.
Same read-out and setting: for `Cc1cccc(NC(=O)c2cc(Oc3cncc(F)c3)cc(C)n2)n1` [compound 22, 4-((5-Fluoropyridin-3-yl)oxy)-6-methyl-N-(6-methylpyridin-2-yl)picolinamide] the value was 32.5 mL/min/kg; for `CCc1cccc(NC(=O)c2cc(Oc3cncnc3)cc(C)n2)n1` [compound 23, N-(6-Ethylpyridin-2-yl)-6-methyl-4-(pyrimidin-5-yloxy)picolinamide], 43.7 mL/min/kg.
As to `Cc1cc(Oc2cncc(F)c2)cc(C(=O)Nc2cccc(F)n2)n1` [compound 26, N-(6-Fluoropyridin-2-yl)-4-((5-fluoropyridin-3-yl)oxy)-6-methylpicolinamide], the “stability in rat plasma” value in “Stability in rat plasma” is on record as “instability”. For the same compound, the clearance at 24 h in the data set “Rat IV PK” worked out at 96 mL/min/kg.
For `Cc1cc(Oc2cncnc2)cc(C(=O)Nc2ccc(F)cn2)n1` [compound 27, N-(5-Fluoropyridin-2-yl)-6-methyl-4-(pyrimidin-5-yloxy)picolinamide], the Tmax in data set [2] was 3 h. In the data set with TA1537, the “bacterial reverse mutation assay TA1537” value was “negative”. For the same compound, the “contribution of AO to metabolism” value in the data set with aldehyde oxidase (AO) was “AO contributed significantly to the metabolism”. In addition, the “bacterial reverse mutation assay TA135” value with TA135 was “negative”. This compound gave a clearance at 24 h in the data set “Rat IV PK” of 19.3 mL/min/kg. Besides, the “bacterial reverse mutation assay WP2 uvrA” value in the data set with WP2 uvrA is on record as “negative”. Also, in the data set with TA98, the “bacterial reverse mutation assay TA98” value was “negative”. In addition, the half-life at 5 µM in data set [3] (both, cryopreserved hepatocytes (pooled, 19 donors)) was above 300 min. The “predicted hepatic clearance (CLHEP)” value in data set [3] (predicted from hepatocytes) is 3.59 mL/min/kg. In addition, the “bacterial reverse mutation assay TA100” value in the data set with TA100 is given as “negative”.
Regarding `Cc1cc(Oc2cncc(F)c2)cc(C(=O)Nc2ccc(F)cn2)n1` [compound 28, N-(5-Fluoropyridin-2-yl)-4-((5-fluoropyridin-3-yl)oxy)-6-methylpicolinamide], the Tmax in [2] is 2 h. Also, in the data set “Rat IV PK”, the clearance at 24 h came to 9.2 mL/min/kg.
In turn, `Cc1cc(Oc2cnc(C)nc2)cc(C(=O)Nc2ccc(F)cn2)n1` [compound 33, N-(5-Fluoropyridin-2-yl)-6-methyl-4-((2-methylpyrimidin-5-yl)oxy)picolinamide] gave a clearance at 24 h in “Rat IV PK” of 6.2 mL/min/kg.

(Values after paper PMC5484149 (Journal of Medicinal Chemistry, 2017).)
